This note sets out measurements from ChEMBL document CHEMBL1129252, “Identification of a 3-hydroxylated tacrine metabolite in rat and man: metabolic profiling implications and pharmacology” (J Med Chem, 1996).

SMILES strings stand for the structures.

Assay [1] concerns the target T1, Acetylcholinesterase (Rattus norvegicus, UniProt P37136).
T1 sequence (P37136 whole entry): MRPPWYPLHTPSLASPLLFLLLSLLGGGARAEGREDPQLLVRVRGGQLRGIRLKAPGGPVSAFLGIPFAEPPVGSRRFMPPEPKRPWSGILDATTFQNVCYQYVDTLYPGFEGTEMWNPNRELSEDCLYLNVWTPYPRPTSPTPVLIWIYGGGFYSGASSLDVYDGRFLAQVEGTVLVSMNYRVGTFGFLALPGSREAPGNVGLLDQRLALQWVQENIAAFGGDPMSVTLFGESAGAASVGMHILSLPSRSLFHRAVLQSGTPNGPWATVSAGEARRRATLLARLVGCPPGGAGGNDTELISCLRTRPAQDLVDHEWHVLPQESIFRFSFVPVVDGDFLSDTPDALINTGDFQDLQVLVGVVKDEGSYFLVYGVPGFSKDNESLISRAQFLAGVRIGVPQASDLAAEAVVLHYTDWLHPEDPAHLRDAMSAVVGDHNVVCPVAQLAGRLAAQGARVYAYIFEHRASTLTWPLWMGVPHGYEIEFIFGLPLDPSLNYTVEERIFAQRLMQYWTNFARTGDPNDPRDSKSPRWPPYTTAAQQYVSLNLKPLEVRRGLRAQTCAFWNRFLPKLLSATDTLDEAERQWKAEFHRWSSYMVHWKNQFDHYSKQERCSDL
Description: Inhibition of Acetylcholinesterase in rat red blood cell

The target in assay [2] is Acetylcholinesterase (Homo sapiens, UniProt P22303).
Description: Inhibition of Acetylcholinesterase in human red blood cell
The target in assay [3] is T2, Acetylcholinesterase (Mus musculus, UniProt P21836).
T2 sequence (P21836 whole entry): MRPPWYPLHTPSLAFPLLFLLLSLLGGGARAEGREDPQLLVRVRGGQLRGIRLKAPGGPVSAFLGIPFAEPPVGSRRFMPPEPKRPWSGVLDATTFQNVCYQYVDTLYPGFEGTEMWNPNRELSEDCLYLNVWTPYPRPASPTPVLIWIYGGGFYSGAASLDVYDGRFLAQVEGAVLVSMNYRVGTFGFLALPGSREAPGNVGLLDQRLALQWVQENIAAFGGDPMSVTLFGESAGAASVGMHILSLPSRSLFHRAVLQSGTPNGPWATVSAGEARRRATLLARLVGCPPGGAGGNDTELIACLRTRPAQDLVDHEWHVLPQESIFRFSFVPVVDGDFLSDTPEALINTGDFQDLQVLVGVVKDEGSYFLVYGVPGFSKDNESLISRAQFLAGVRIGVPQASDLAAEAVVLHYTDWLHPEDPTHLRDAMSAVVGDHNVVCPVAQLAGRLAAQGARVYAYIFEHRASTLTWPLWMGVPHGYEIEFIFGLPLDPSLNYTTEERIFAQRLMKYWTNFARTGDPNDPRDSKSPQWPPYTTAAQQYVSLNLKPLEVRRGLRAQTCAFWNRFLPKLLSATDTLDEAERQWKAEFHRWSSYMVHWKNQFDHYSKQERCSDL
Description: Inhibition of Acetylcholinesterase in mouse red blood cell

Sequence of Acetylcholinesterase (Homo sapiens, UniProt P22303) (P22303 whole entry): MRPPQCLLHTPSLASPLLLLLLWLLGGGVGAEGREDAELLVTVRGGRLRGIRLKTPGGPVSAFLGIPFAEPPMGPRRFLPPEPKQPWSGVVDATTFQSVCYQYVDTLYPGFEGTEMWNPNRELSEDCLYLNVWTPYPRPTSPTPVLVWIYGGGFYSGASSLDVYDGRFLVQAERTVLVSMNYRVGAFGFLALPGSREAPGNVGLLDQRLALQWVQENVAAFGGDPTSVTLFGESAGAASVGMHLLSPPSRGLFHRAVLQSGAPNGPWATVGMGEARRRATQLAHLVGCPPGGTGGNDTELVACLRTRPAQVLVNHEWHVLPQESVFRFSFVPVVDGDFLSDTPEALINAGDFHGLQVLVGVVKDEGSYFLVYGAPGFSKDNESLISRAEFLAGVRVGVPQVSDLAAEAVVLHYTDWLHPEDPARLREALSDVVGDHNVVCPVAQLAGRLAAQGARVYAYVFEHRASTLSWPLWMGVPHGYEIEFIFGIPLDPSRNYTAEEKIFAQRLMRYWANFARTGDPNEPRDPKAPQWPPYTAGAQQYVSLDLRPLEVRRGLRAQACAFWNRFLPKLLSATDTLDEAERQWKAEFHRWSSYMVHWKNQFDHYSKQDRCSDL

As for `Nc1c2c(nc3ccccc13)CCC(O)C2` (stereo not given), the half-inhibitory concentration (IC50) worked out at 1770 nM in assay [1], 1610 nM in assay [2] and 4820 nM in assay [3].

In the case of `Nc1c2c(nc3ccccc13)C(O)CCC2` (stereo not given), the 50% inhibitory concentration (IC50) in assay [1] worked out at 411 nM; in assay [2], 521 nM; in assay [3], 1430 nM.

For `Nc1c2c(nc3ccccc13)CCCC2O` (stereo not given) [VELNACRINE], the concentration for half-maximal inhibition (IC50) in assay [1] amounted to 361 nM.

For `Nc1c2c(nc3ccccc13)CC(O)CC2` (stereo not given) [7-HYDROXYTACRINE], the values for the half-inhibitory concentration (IC50) in assay [1], in assay [2] and in assay [3] were 483 nM, 623 nM and 1210 nM, respectively.

By IC50 is commonly meant the midpoint of a concentration-inhibition curve. Low readings indicate inhibition by little substance, high ones a need for much substance.
